These results are taken from patent US20170303540A1, “NOVEL TRIAZOLE DERIVATIVES” (BAYER CROPSCIENCE AKTIENGESELLSCHAFT, priority 2014, published 2017).

By chromatographic logP is commonly meant a lipophilicity value derived from retention on a column. Low readings indicate a more hydrophilic compound, high ones a more lipophilic compound.

Molecules are shown by their SMILES.

The nature of this data set: Log P by HPLC on reversed phase columns (EEC directive 79/831 Annex V.A8). In kind it is physicochemical. The conditions noted are these: method [a]: HPLC/LC-MS at pH 2.7, 0.1% formic acid in water / acetonitrile gradient. The method, then: Measurement of Log P values for Table 2 was performed according to EEC directive 79/831 Annex V.A8 by HPLC (High Performance Liquid Chromatography) on reversed phase columns with the following methods: ^[a]Measurement of LC-MS was done at pH 2.7 with 0.1% formic acid in water and with acetonitrile (contains 0.1% formic acid) as eluent with a linear gradient from 10% acetonitrile to 95% acetonitrile. […] Lambda-max-values were determined using UV-spectra from 200 nm to 400 nm and the peak values of the chromatographic signals.

Take `CC(C)(Cc1ccc(Cl)cc1)C(O)(Cc1ccnnc1Cl)Cn1cncn1` (stereo not drawn) [Example I-368]: the LogP was 2.75^[a].

Consider `CCC1(C(O)(Cc2cc(Cl)nnc2Cl)Cn2cncn2)CC1` (stereo not drawn) [Example I-441], for which the LogP was 2.18^[a].

For the molecule `OC(Cc1ccc(Cl)cc1Cl)(Cc1ccnnc1Cl)Cn1cncn1` (stereo not drawn) [Example I-444], the LogP is 2.34^[a].

With `OC(Cc1ccc(Cl)cc1Cl)(Cc1cc(Cl)nnc1Cl)Cn1cncn1` (stereo not drawn) [Example I-480], the LogP was 2.96^[a].

Consider `CC(CF)(CF)C(O)(Cc1ccnnc1Cl)Cn1cncn1` (stereo not drawn) [Example I-530], for which the LogP was 1.28^[a].

On to `C=CC(C)(C)C(O)(Cc1ccnnc1Cl)Cn1cncn1` (stereo not drawn) [Example I-592], for which the LogP is 1.60^[a].

Turning to `CC(C)(CF)C(O)(Cc1ccnnc1Cl)Cn1cncn1` (stereo not drawn) [Example I-593], the LogP is 1.31^[a].

With `OC(Cc1cc(Cl)nnc1Cl)(Cn1cncn1)C1CC1` (stereo not drawn) [Example I-710], the LogP is 1.49^[a].

For the molecule `CC(C)(C)C(O)(Cc1ccnnc1Cl)Cn1cncn1` (stereo not drawn) [Example I-713, 1-(3-chloropyridazin-4-yl)-3,3-dimethyl-2-(1H-1,2,4-triazol-1-ylmethyl)butan-2-ol], under “reversed phase HPLC columns”, the chromatographic logP turned out to be 1.48.

In the case of `CCC1(C(O)(Cc2ccnnc2Cl)Cn2cncn2)CC1` (stereo not drawn) [Example I-745], the LogP is 1.59^[a].

For the molecule `CC(C)(CCl)C(O)(Cc1ccnnc1Cl)Cn1cncn1` (stereo not drawn) [Example I-771], the LogP was 1.70^[a].

On to `OC(Cc1ccnnc1Cl)(Cn1cncn1)C1CC1` (stereo not drawn) [Example I-799], for which the LogP was 0.84^[a].
